Reference: ChEMBL document CHEMBL4699502, “Discovery of 1-(1H-indazol-4-yl)-3-((1-phenyl-1H-pyrazol-5-yl)methyl) ureas as potent and thermoneutral TRPV1 antagonists” (Bioorg Med Chem Lett, 2020)
Activity calls are given as the source filed them. The calls are words filed in the database; no cut-off is given here.

Molecular target: T1, Transient receptor potential cation channel subfamily V member 1 (Homo sapiens, UniProt Q8NER1)
Assay: Partial agonist activity at human TRPV1 expressed in CHO-K1 cells assessed as induction of Ca2+ response treated with compound 6 mins prior to capsaicin addition and measured after overnight incubation by FLIPR assay
Format: cell-based
Details: filed as partial agonist

T1 sequence (Q8NER1 whole entry): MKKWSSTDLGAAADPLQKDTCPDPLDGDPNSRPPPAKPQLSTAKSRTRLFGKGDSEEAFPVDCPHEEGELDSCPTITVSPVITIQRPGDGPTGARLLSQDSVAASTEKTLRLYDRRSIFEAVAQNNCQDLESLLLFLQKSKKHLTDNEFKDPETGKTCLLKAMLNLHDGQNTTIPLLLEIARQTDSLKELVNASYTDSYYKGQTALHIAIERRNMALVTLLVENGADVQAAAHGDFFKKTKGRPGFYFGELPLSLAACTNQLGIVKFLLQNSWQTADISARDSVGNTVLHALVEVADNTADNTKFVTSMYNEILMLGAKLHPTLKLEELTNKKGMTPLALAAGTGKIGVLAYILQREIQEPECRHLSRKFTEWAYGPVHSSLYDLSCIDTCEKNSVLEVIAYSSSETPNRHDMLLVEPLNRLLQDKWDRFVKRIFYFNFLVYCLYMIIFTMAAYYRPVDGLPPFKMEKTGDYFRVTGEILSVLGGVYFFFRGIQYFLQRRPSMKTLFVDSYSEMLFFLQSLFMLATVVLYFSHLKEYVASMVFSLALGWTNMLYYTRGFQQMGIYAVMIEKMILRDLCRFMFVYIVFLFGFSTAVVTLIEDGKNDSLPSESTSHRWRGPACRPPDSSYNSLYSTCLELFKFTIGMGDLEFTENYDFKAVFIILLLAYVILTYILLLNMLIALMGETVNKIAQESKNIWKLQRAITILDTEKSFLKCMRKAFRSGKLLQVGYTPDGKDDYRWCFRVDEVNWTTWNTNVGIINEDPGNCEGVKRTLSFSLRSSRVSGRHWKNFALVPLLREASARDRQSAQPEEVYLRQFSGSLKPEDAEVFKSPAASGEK

Activity | Structure (SMILES)
Active | CC(C)(C)c1cc(CNC(=O)Nc2ccc3cn[nH]c3c2)n(-c2cccc(Cl)c2)n1
Active | Cc1ccc(-n2nc(C(C)(C)C)cc2CNC(=O)Nc2cccc3[nH]ncc23)cc1C
Active | Cn1ncc2ccc(NC(=O)NCc3cc(C(F)(F)F)nn3-c3cccc(Cl)c3)cc21

Molecular target: T1, Transient receptor potential cation channel subfamily V member 1
Assay: Antagonist activity at human TRPV1 expressed in CHO-K1 cells assessed as inhibition of capsaicin-induced Ca2+ response treated with compound 6 mins prior to capsaicin addition and measured after overnight incubation by FLIPR assay
Format: cell-based
Details: not given

Structure (SMILES) | Ki [nM]
Cn1ncc2c(NC(=O)NCc3cc(C(C)(C)C)nn3-c3cccc(Cl)c3)cccc21 | 0.4
CC(=O)n1ncc2c(NC(=O)NCc3cc(C(C)(C)C)nn3-c3cccc(Cl)c3)cccc21 | 29.5
Cn1ncc2cc(NC(=O)NCc3cc(C(F)(F)F)nn3-c3cccc(Cl)c3)ccc21 | 61
Cn1ncc2c(NC(=O)NCc3cc(C(F)(F)F)nn3-c3cccc(F)c3)cccc21 | 7
Cn1ncc2c(NC(=O)NCc3cc(C(C)(C)C)nn3-c3ccc(Cl)cc3)cccc21 | 9.5
Cn1ncc2c(NC(=O)NCc3cc(C(C)(C)C)nn3-c3ccc(C(F)(F)F)cc3)cccc21 | 12.4

The next lines start with the values.

Ki [nM] | Structure (SMILES)
2.7 | Cn1ncc2c(NC(=O)NCc3cc(C(F)(F)F)nn3-c3ccc(Cl)cc3)cccc21
62.9 | COc1ccc(-n2nc(C(C)(C)C)cc2CNC(=O)Nc2cccc3[nH]ncc23)cc1
3.9 | Cn1ncc2c(NC(=O)NCc3cc(C(F)(F)F)nn3-c3ccc(C(F)(F)F)cc3)cccc21
2.5 | O=C(NCc1cc(C(F)(F)F)nn1-c1ccc(Cl)cc1)Nc1cccc2[nH]ncc12
0.6 | O=C(NCc1cc(C(F)(F)F)nn1-c1ccc(F)c(Cl)c1)Nc1cccc2[nH]ncc12
2.2 | CC(C)(C)c1cc(CNC(=O)Nc2cccc3[nH]ncc23)n(-c2ccc(F)cc2)n1
1.9 | Cn1ncc2c(NC(=O)NCc3cc(C(F)(F)F)nn3-c3ccc(F)c(Cl)c3)cccc21

Same assay, conditions: filed as antagonist

inhibition | Structure (SMILES)
Active | O=C(NCc1cc(C(F)(F)F)nn1-c1cccc(Cl)c1)Nc1ccc2cn[nH]c2c1

Molecular target: T1, Transient receptor potential cation channel subfamily V member 1
Assay: Agonist activity at human TRPV1 expressed in CHO-K1 cells assessed as induction of Ca2+ response treated with compound 6 mins prior to capsaicin addition and measured after overnight incubation by FLIPR assay
Format: cell-based
Details: filed as agonist

Activity | Structure (SMILES)
Active | Cn1cc2c(NC(=O)NCc3cc(C(F)(F)F)nn3-c3cccc(Cl)c3)cccc2n1
Active | Cn1cc2c(NC(=O)NCc3cc(C(C)(C)C)nn3-c3cccc(Cl)c3)cccc2n1
Active | CC(C)(C)c1cc(CNC(=O)Nc2ccc3[nH]ncc3c2)n(-c2cccc(Cl)c2)n1
Active | Cn1ncc2ccc(NC(=O)NCc3cc(C(C)(C)C)nn3-c3cccc(Cl)c3)cc21
Active | Cn1ncc2cc(NC(=O)NCc3cc(C(C)(C)C)nn3-c3cccc(Cl)c3)ccc21

Test system: not listed separately
Assay: Induction of hyperthermia in mouse assessed as effect on body temperature by measuring thermo-neutral activity at 10 mg/kg, po
Format: organism-based
Details: in vivo

Structure (SMILES) | Activity
Cn1ncc2c(NC(=O)NCc3cc(C(C)(C)C)nn3-c3cccc(Cl)c3)cccc21 | Non-Toxic

Test system: not listed separately
Assay: In vivo antagonist activity at TRPV1 in mouse assessed as inhibition of capsaicin-induced hypothermia at 10 mg/kg, po
Format: functional
Details: not given

Structure (SMILES) | inhibition in vivo at 10 mg/kg [%]
Cn1ncc2c(NC(=O)NCc3cc(C(C)(C)C)nn3-c3cccc(Cl)c3)cccc21 | 14
